Data reported in patent US8802235B2, “Drug and imaging agent delivery compositions and methods” (priority 2012, dated 2014).

Tests used:
MDA-MB-231 cells = assay: Cell growth inhibition (resazurin blue), MDA-MB-231; type: cell-based, human; details: 72 hours
Procedure: (§1) Cell growth inhibition was determined in 96-well plates (3,000 cells/well in 100 μL, 12 replicates/sample) using highly invasive human breast cancer cells, MDA-MB-231, non-metastatic human breast cancer cells, MDA-MB-468, and highly invasive human head and neck squamous cell cancer cells positive for epithelia growth factor receptor, MDA-1986. Drug or conjugate solutions were applied after 24 hours, and 72 hours post-addition, resazurin blue in 10 μL of PBS was applied to each well (final concentration 5 μM).

MDA-MB-468 cells = assay: Cell growth inhibition (resazurin blue), MDA-MB-468; type: cell-based, human; details: 72 hours
Procedure: as §1

MCF-7 cells [1] = tested on: MCF-7 cells
MDA-1986 cells [2] = assay: Nitric oxide release (Griess) in cell culture with MDA-1986 cells; type: cell-based, human
Procedure: The fluorescence intensity was measured between 520 and 550 nm using a fluorescence microplate reader.
The concentration of nitrite, the stable breakdown product of gaseous nitric oxide, was measured using Griess assay as an indirect measurement of nitric oxide concentration in cell culture media. The assay is based on the reaction between sulfanilamide, N-1-napthyethylenediamine dihydrochloride and nitrite, under acidic conditions to produce a […] azo compound.

MDA-1986 cells [3] = assay: Cell growth inhibition (resazurin blue), MDA-1986; type: cell-based, human; details: 72 hours
Procedure: as §1

MCF-7 cells [4] = assay: Cell growth inhibition (resazurin blue), MCF-7; type: cell-based, human; details: 72 hours after drug addition
Procedure: Plates were seeded with 3,000 cells/well in 100 μL of media (12 replicates/sample). Drug or conjugate solutions were applied after 24 hours. […] The in vitro anti-proliferative activities of cisplatin, NO-donating prodrug, and their star polymer-based conjugates, including acid-Pt, acid-NO, and combinational acid-Pt/acid-NO were evaluated in cell culture using a human breast cancer cell line, MCF-7. […] The acid-Pt appeared to be less cytotoxic than cisplatin in the cells. This is likely due to the slow release of the active drug, which was not unexpected for a sustained-delivery platform. One of the obstacles that has not yet been overcome in infusion chemotherapy is the poor tumor penetration and accumulation of small-molecule anti-cancer agents. Usually the majority of the chemotherapeutics have been cleared from systemic circulation, via the kidneys, before a significant concentration of the anti-cancer agent is achieved in the tumorigenic tissues. However, the acid-Pt and acid-NO nanoconjugates may greatly enhance the intratumoral drug concentration compared to the normal tissues due to the Enhanced Permeability and Retention effect (EPR), in which nanoformulations tend to penetrate tumors more effectively via leaky, fenestrated tumor blood vessels. […]

What does the source list for `O=[N+]([O-])c1ccc(ON=[N+]([O-])N2CCN(CCOCCO)CC2)c([N+](=O)[O-])c1` [NO1, O^2-(2,4-Dinitrophenyl) 1-{[4-(2-(2-hydroxyethoxy))ethyl]piperazin-1-yl}diazen-1-ium-1,2-diolate]?
IC50 (MDA-MB-231 cells): 32 ± 3 µM; IC50 (MDA-MB-468 cells): 26 ± 4 µM; Release half-life (MCF-7 cells [1]): 7.4 h; Release half-life (MDA-1986 cells [2]): 7.1 h; IC50 (MDA-1986 cells [3]): 33 ± 1 µM; IC50 (MCF-7 cells [4]): 48 ± 28 µM
